Eleven compounds from ChEMBL document CHEMBL1201862, “PubChem BioAssay data set” (2004) can be followed below.

Some test systems named below: RXF 393; NCI-H522; CCRF-CEM; NCI-H23; TK-10; OVCAR-4; SK-MEL-5; HCT-116; OVCAR-3; HOP-62; SR; HCT-15; NCI/ADR-RES; U-251; SNB-75; SW-620; Malme-3M; SK-MEL-2; HOP-92.
What all share (experiment): NCI anticancer screen, dose series, 48 h

The structures appear in SMILES notation.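 Protocol summary: plate cells (96-well), add compound at 5 concentrations, incubate 48 h, interpolate endpoints linearly. GI50 is the concentration that inhibits growth by half.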 Activity calls are given as the source filed them. Rule as the data show it: active = GI50 up to about 1.1 µM and inactive = higher.

Turning to `CCOP(=O)(OCC)Oc1c(OC)c2[nH]c(C(=O)OC)cc2c2c(C(=O)O)c[nH]c12`, the GI50 in the assay on RXF 393, with NCI-H522, with CCRF-CEM, with NCI-H23, with TK-10 and with OVCAR-4 was > 100 µM (inactive) throughout. For the same compound, the GI50 in the assay on SK-MEL-5 was > 100 µM (inactive); in the assay with HCT-116, > 100 µM (inactive); in the assay on OVCAR-3, > 100 µM (inactive); with HOP-62 it was > 100 µM (inactive); with SR, > 100 µM (inactive); with HCT-15, greater than 100 µM. The GI50 in the assay with NCI/ADR-RES, in the assay on U-251, in the assay with SNB-75, in the assay with SW-620, in the assay with Malme-3M and with SK-MEL-2 was > 100 µM (inactive) each time. The GI50 in the assay with HOP-92 was > 100 µM (inactive).
For the compound `[N-]=[N+]=Nc1ccccc1C(=O)N1C(=O)c2ccccc2C(=O)N(C(=O)c2ccccc2N=[N+]=[N-])c2ccccc21`, the GI50 in the assay with RXF 393 was 27.4 µM (inactive); with NCI-H522 it was 30.5 µM (inactive); in the assay on CCRF-CEM, 11.1 µM (inactive); in the assay with NCI-H23, 86.5 µM (inactive); in the assay on TK-10, 67.5 µM (inactive); in the assay with OVCAR-4, > 100 µM (inactive). For the same compound, the GI50 in the assay with SK-MEL-5 was 47.2 µM (inactive); in the assay on HCT-116 it was 35 µM (inactive); in the assay with OVCAR-3, 37.7 µM (inactive); in the assay with HOP-62, 21.6 µM (inactive); in the assay with SR, 38.8 µM (inactive); in the assay on HCT-15, 54.8 µM. Moreover, the GI50 with NCI/ADR-RES was 40.8 µM (inactive); in the assay on U-251 it was 40 µM (inactive); with SNB-75, 21.4 µM (inactive); with SW-620 it was 32.1 µM (inactive); in the assay with Malme-3M, > 100 µM (inactive); with SK-MEL-2, 37.9 µM (inactive). Also, in the assay on HOP-92, the GI50 is 23.1 µM (inactive).
Take `COc1cc(/N=N/c2cccc(S(N)(=O)=O)c2)c2ccccc2c1N`: the GI50 was 15.7 µM (inactive) with RXF 393; 12.1 µM (inactive) in the assay with NCI-H522; 8.17 µM (inactive) with CCRF-CEM; 2.02 µM (inactive) in the assay with NCI-H23; 16.1 µM (inactive) in the assay on TK-10; 13.4 µM (inactive) with OVCAR-4. Besides, the GI50 in the assay with SK-MEL-5 was 1.8 µM (inactive); in the assay on HCT-116, 14.7 µM (inactive); in the assay with OVCAR-3, 4.86 µM (inactive); in the assay with HOP-62, 7.35 µM (inactive); with SR, 11.3 µM (inactive); in the assay on HCT-15, 18.2 µM. The GI50 with NCI/ADR-RES was 22 µM (inactive); in the assay on U-251 it was 7.48 µM (inactive); in the assay with SNB-75, 1.98 µM (inactive); in the assay with SW-620 it was 23.9 µM (inactive); with Malme-3M, 1.7 µM (inactive); with SK-MEL-2, 2.26 µM (inactive). Also, the GI50 with HOP-92 was 17.3 µM (inactive).
For `CC1NOC(NS(=O)(=O)c2ccc(/N=N/c3c(O)c(C(=O)O)cc4ccccc34)cc2)C1C` (stereo not drawn), the GI50 in the assay with RXF 393 is > 100 µM (inactive); with NCI-H522 it was 72.4 µM (inactive); in the assay on CCRF-CEM it was > 100 µM (inactive); in the assay with TK-10, > 100 µM (inactive); in the assay on OVCAR-4, > 100 µM (inactive); in the assay on SK-MEL-5, > 100 µM (inactive). Also, the GI50 with HCT-116 was > 100 µM (inactive); in the assay on OVCAR-3, > 100 µM (inactive); with HOP-62 it was > 100 µM (inactive); with SR, > 100 µM (inactive); in the assay on HCT-15 it was greater than 100 µM; in the assay with NCI/ADR-RES it was > 100 µM (inactive). Besides, the GI50 in the assay with U-251, with SNB-75, in the assay with SW-620, in the assay with Malme-3M, in the assay with SK-MEL-2 and in the assay on HOP-92 was > 100 µM (inactive) in each case.
As to `CCN1C=C/C(=C\C=C\c2cc[n+](CC)c3ccccc23)c2ccccc21`, the GI50 is 17.3 µM (inactive) with RXF 393; 7.43 µM (inactive) in the assay with NCI-H522; 4.52 µM (inactive) with CCRF-CEM; 2.87 µM (inactive) with NCI-H23; 10.6 µM (inactive) in the assay with TK-10; 4.46 µM (inactive) in the assay with OVCAR-4. The GI50 was 8.99 µM (inactive) in the assay on SK-MEL-5; 2.75 µM (inactive) in the assay on HCT-116; 2.49 µM (inactive) in the assay on OVCAR-3; 3.24 µM (inactive) in the assay with HOP-62; 3.33 µM (inactive) in the assay on SR; 16.4 µM in the assay with HCT-15. The GI50 in the assay on NCI/ADR-RES is 64.4 µM (inactive); in the assay on U-251, 3.8 µM (inactive); in the assay with SNB-75, 2.64 µM (inactive); in the assay with SW-620, 4.62 µM (inactive); with Malme-3M, 13.4 µM (inactive); with SK-MEL-2 it was 7.62 µM (inactive). The GI50 in the assay on HOP-92 is 12.4 µM (inactive).
Turning to `Cc1ccc(-c2nc3cc(Cl)ccc3[nH]2)cc1`, the GI50 was > 100 µM (inactive) in the assay on RXF 393; 91.2 µM (inactive) in the assay on NCI-H522; > 100 µM (inactive) in the assay on CCRF-CEM; > 100 µM (inactive) in the assay on NCI-H23; > 100 µM (inactive) with TK-10; > 100 µM (inactive) with OVCAR-4. The GI50 was > 100 µM (inactive) in the assay with SK-MEL-5; > 100 µM (inactive) in the assay on HCT-116; > 100 µM (inactive) in the assay on OVCAR-3; > 100 µM (inactive) in the assay with HOP-62; 3.38 µM (inactive) in the assay with SR; 80.5 µM in the assay with HCT-15. Besides, the GI50 in the assay with NCI/ADR-RES was 71.3 µM (inactive); in the assay on U-251, > 100 µM (inactive); with SNB-75, > 100 µM (inactive); in the assay on SW-620, > 100 µM (inactive); in the assay on Malme-3M, > 100 µM (inactive); with SK-MEL-2, > 100 µM (inactive). In addition, the GI50 in the assay on HOP-92 was > 100 µM (inactive).
`Cc1cc2ccccc2n1CC(=O)NCC(C)C`: the GI50 with RXF 393, in the assay with NCI-H522, in the assay on CCRF-CEM, with NCI-H23, in the assay on TK-10 and in the assay with OVCAR-4 was > 100 µM (inactive) throughout. In addition, the GI50 in the assay on SK-MEL-5 was > 100 µM (inactive); in the assay on HCT-116 it was > 100 µM (inactive); in the assay with OVCAR-3 it was > 100 µM (inactive); in the assay on HOP-62, > 100 µM (inactive); in the assay with SR, > 100 µM (inactive); in the assay with HCT-15, greater than 100 µM. The GI50 in the assay with NCI/ADR-RES, in the assay on U-251, in the assay with SNB-75, with SW-620, with Malme-3M and in the assay with SK-MEL-2 was > 100 µM (inactive) in each case. Further, the GI50 in the assay on HOP-92 was > 100 µM (inactive).
For the compound `CCOC(CN=C=S)OCC`, the GI50 was > 10 µM (inactive) in the assay on RXF 393; > 10 µM (inactive) in the assay with NCI-H522; 4.45 µM (inactive) with CCRF-CEM; > 10 µM (inactive) in the assay on NCI-H23; > 10 µM (inactive) in the assay with TK-10; > 10 µM (inactive) in the assay on OVCAR-4. The GI50 in the assay with SK-MEL-5 is > 10 µM (inactive); in the assay with HCT-116 it was 7.4 µM (inactive); in the assay with OVCAR-3, > 10 µM (inactive); with HOP-62, > 10 µM (inactive); in the assay on SR, 2.52 µM (inactive); in the assay with HCT-15, greater than 10 µM. Besides, the GI50 in the assay with NCI/ADR-RES, with U-251, in the assay on SNB-75, in the assay on SW-620, with Malme-3M and in the assay with SK-MEL-2 was > 10 µM (inactive) throughout. For the same compound, in the assay on HOP-92, the GI50 is 7.67 µM (inactive).
For the compound `COc1nc2nccnc2c(=O)n1C`, the GI50 in the assay with RXF 393, with NCI-H522, with CCRF-CEM, in the assay on NCI-H23, with TK-10 and in the assay on OVCAR-4 was > 10 µM (inactive) in each case. Further, the GI50 in the assay on SK-MEL-5 is > 10 µM (inactive); with HCT-116, > 10 µM (inactive); in the assay on OVCAR-3, > 10 µM (inactive); with HOP-62, > 10 µM (inactive); with SR, > 10 µM (inactive); with HCT-15, greater than 10 µM. Also, the GI50 in the assay on NCI/ADR-RES, with U-251, in the assay with SNB-75, in the assay on SW-620, in the assay on Malme-3M and in the assay on SK-MEL-2 was > 10 µM (inactive) in each case. Also, the GI50 with HOP-92 is > 10 µM (inactive).
Regarding `Cc1ccc2[nH]/c(=N/S(=O)(=O)c3cc(C)c(Cl)cc3S)[nH]c2c1`, the GI50 is > 100 µM (inactive) in the assay on RXF 393; > 100 µM (inactive) in the assay with NCI-H522; 21.4 µM (inactive) in the assay on CCRF-CEM; 66.2 µM (inactive) in the assay with NCI-H23; > 100 µM (inactive) in the assay with TK-10; 65 µM (inactive) with OVCAR-4. Further, the GI50 in the assay with SK-MEL-5 was 31.3 µM (inactive); in the assay with HCT-116, 46.6 µM (inactive); in the assay with OVCAR-3, 91.2 µM (inactive); in the assay with HOP-62, 34.8 µM (inactive); in the assay with SR, 31.6 µM (inactive); in the assay on HCT-15, 67.9 µM. The GI50 with NCI/ADR-RES is > 100 µM (inactive); with U-251, 24 µM (inactive); in the assay on SNB-75 it was 25.1 µM (inactive); with SW-620, 43.8 µM (inactive); with Malme-3M, > 100 µM (inactive); in the assay on SK-MEL-2, 78.3 µM (inactive). Moreover, the GI50 with HOP-92 was > 100 µM (inactive).
Turning to `COc1cc2cc(C(=O)N3CC(CCl)c4c3cc(N)c3ccccc43)[nH]c2c(OC)c1OC` (stereo not drawn), the GI50 in the assay on RXF 393, with NCI-H522, in the assay with CCRF-CEM, in the assay with NCI-H23, in the assay on TK-10 and in the assay on OVCAR-4 was < 0.01 µM (active) throughout. Moreover, the GI50 in the assay on SK-MEL-5 was < 0.01 µM (active); in the assay on HCT-116, < 0.01 µM (active); with OVCAR-3 it was < 0.01 µM (active); with HOP-62, < 0.01 µM (active); in the assay on SR, < 0.01 µM (active); in the assay on HCT-15, less than 0.01 µM. The GI50 in the assay on NCI/ADR-RES, in the assay with U-251, in the assay with SNB-75, in the assay on SW-620, in the assay with Malme-3M and with SK-MEL-2 was < 0.01 µM (active) in each case. Further, in the assay on HOP-92, the GI50 was < 0.01 µM (active).
